The values that follow come from article PMC5282883, “Droplet-based microfluidic high-throughput screening of heterologous enzymes secreted by the yeast Yarrowia lipolytica” (Microbial Cell Factories, 2017).

Assay in all cases: fluorogenic hydrolysis assay, crude supernatant
What all share (format): biochemical
What all share (details): 150 µM substrate, 50 mM acetate buffer pH 4.5, 25 °C

One assay concerns the target T1, endoglucanase A (Aspergillus niger, UniProt A2R322).
T1 construct: gene eglA; codon-optimised gene secreted by Yarrowia lipolytica strain JMY4343; crude supernatant; 26 kDa on SDS-PAGE

The target of another assay is T2, endo-β-1,4-xylanase B (Aspergillus niger, UniProt A2Q7I0).
T2 construct: gene xlnB; codon-optimised gene secreted by Yarrowia lipolytica strain JMY4346; crude supernatant; 22 kDa on SDS-PAGE

The next assay addresses T3, endo-β-1,4-xylanase C (Aspergillus niger, UniProt A2QFV7).
T3 construct: gene xlnC; codon-optimised gene secreted by Yarrowia lipolytica strain JMY4510; crude supernatant

T2 sequence (A2Q7I0 19-225): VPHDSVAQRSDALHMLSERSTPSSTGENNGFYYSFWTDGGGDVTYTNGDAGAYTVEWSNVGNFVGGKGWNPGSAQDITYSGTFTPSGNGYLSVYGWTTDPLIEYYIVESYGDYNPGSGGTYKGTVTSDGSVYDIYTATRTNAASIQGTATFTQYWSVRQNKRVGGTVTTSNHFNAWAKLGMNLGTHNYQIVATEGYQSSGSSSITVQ
T1 sequence (A2R322 17-239): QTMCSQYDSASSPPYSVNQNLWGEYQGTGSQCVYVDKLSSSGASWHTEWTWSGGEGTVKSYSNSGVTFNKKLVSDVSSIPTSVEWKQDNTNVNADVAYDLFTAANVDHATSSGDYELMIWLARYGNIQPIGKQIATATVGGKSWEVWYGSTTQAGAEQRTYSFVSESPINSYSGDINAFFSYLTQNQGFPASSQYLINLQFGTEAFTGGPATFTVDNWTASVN

For `O=c1cc(CS(=O)(=O)O)c2cc(F)c(O[C@@H]3O[C@H](CO)[C@@H](O[C@@H]4O[C@H](CO)[C@@H](O)[C@H](O)[C@H]4O)[C@H](O)[C@H]3O)c(F)c2o1` [β-D-cellobioside-6,8-difluoro-7-hydroxycoumarin-4-methansulfonate], the “fluorogenic hydrolysis assay, crude supernatant” value on endoglucanase A is reported as “JMY4343 (egla) displayed a low activity with this substrate”. `O=c1cc(CS(=O)(=O)O)c2cc(F)c(O[C@@H]3OC[C@@H](O[C@@H]4OC[C@@H](O)[C@H](O)[C@H]4O)[C@H](O)[C@H]3O)c(F)c2o1` [β-D-xylobioside-6,8-difluoro-7-hydroxycoumarin-4-methansulfonate]: the “fluorogenic hydrolysis assay, crude supernatant” value is “The JMY4346 (xlnb) and JMY4510 (xlnc) strains exhibited similar levels of endo-β-1,4-xylanase activity” on endo-β-1,4-xylanase B; “The JMY4346 (xlnb) and JMY4510 (xlnc) strains exhibited similar levels of endo-β-1,4-xylanase activity” on endo-β-1,4-xylanase C.
